Experimental data as given in patent US20050060764A1, “Mouse model for bone metabolism” (priority 2003, published 2005).
Strand notation (5' to 3'): a small letter for the sugar, then the base; units joined by * are phosphorothioate-linked, units joined directly phosphodiester-linked; [ ] holds rarer units or linkages, { } end groups; capitals alone tell only the bases. e = 2'-O-(2-methoxyethyl) (MOE); [5mC] = 5-methylcytosine; d = 2'-deoxy (DNA)

Tests used:
[1] = system: RANK mRNA; experiment: RANK mRNA expression in mouse bone marrow after antisense oligonucleotide treatment and PTH infusion: time course (Table 13); format: in vivo; details: then 24 h PTH
Procedure: Female Swiss-Webster mice (5-8 wks old) were fed a low-calcium diet and received daily subcutaneous injections of 30 mg/kg of ISIS 181071 (SEQ ID NO: 356) for 2, 3, 5, 7, 10, 14, or 21 days. At the end of the oligonucleotide treatment period, mice were infused with PTH by subcutaneously implanted mini-pumps at a dose of 1 ug/100 g/6 hr. A group of control mice were dosed with either saline, PTH alone (1 ug/100 g/6 hr) or calcitonin (400 ug) plus PTH (1 ug/100 g/6 hr). Following 24 hours of PTH infusion (total PTH delivery of 4ug/100 g), the mice were sacrificed and measurements were made of serum calcium with the Sigma Diagnostics Calcium Kit (Sigma-Aldrich) and RANK mRNA expression in the proximal tibia (as described in other examples herein). Percent RANK mRNA inhibition is normalized to PTH alone treatment.

[2] = system: RANKL mRNA; experiment: Short-term bone resorption model: RANKL mRNA expression in proximal tibia after PTH infusion (Table 6); format: in vivo, mouse; details: mice infused with PTH 1 ug/100 g/6 hr
Excerpt: Probes and primers to mouse RANKL were designed to hybridize to a mouse RANKL sequence, using published sequence information (GenBank accession number AF013170.1, incorporated herein as SEQ ID NO:ll). For mouse RANKL the PCR primers were: • forward primer: […] (SEQ ID NO:12) • reverse primer: […] (SEQ ID NO: 13) and • the PCR probe was: FAM-[…]-TAMRA (SEQ ID NO: 14) where FAM is the fluorescent reporter dye and TAMRA is the quencher dye. For mouse GAPDH the PCR primers were: • forward primer: […](SEQ ID NO:15) • reverse primer: […](SEQ ID NO:16) and the • PCR probe was: 5′ JOE-[…]-TAMRA 3′ (SEQ ID NO: 17) where JOE is the fluorescent reporter dye and TAMRA is the quencher dye.
Parathyroidectomized rats are a well-established, short-term model of bone resorption and are useful in the investigation of antiresorptive agents. However, it is difficult to surgically remove only the parathyroid gland of rodents, and the inadvertent removal of the adjacent thyroid gland often has effects on thyroid hormone levels that introduce into the experiment an undesirable level of variability. Continuous infusion of parathyroid hormone (PTH) into intact, young (6-9 weeks old) mice reproduces the short-term bone resorption activity seen in parathyroidectomized rodents and is thus a useful, non-invasive model for the study of antiresorptive agents. The PTH infusion activates bone osteoclasts and causes them to degrade bone matrix, with a resulting rise in serum calcium. In accordance with the present invention, a short-term mouse model of bone resorption was developed and used to evaluate the effects of PTH infusion on serum calcium concentration and RANKL mRNA levels.
Female, Swiss-Webster mice (5-8 weeks old) were placed on a low calcium diet and implanted with mini-pumps delivering PTH continuously. The pumps were calibrated to deliver 1 ug PTH per 100 g bodyweight per 6 hour time period (1 ug/100 g/6 hr). […] The data are expressed as percent increase relative to no PTH treatment.

[3] = Serum calcium concentration 24 hours after PTH infusion in mice treated with RANKL antisense oligonucleotides (Table 10); format: in vivo, mouse; details: no oligonucleotide treatment, PTH 1 ug/100 g/6 hr 24 h, calcitonin 400 ng
Procedure: In accordance with the present invention, the effect of antisense oligonucleotide inhibition on PTH-induced serum calcium concentration increase was measured in mice. The serum calcium concentration in mice was measured as a function of antisense oligonucleotide dose. Calcitonin, a known bone antiresorptive agent, was used as a control for antiresorptive activity.
Female Swiss-Webster (5-8 wks old) mice fed a low-calcium diet were dosed subcutaneously for two weeks with either the oligonucleotides ISIS 180819 (SEQ ID NO: 185) or 180814 (SEQ ID NO: 180) at concentrations of 5 mg/kg, 15 mg/kg, 30 mg/kg, or 40 mg/kg. A control group of mice were treated with calcitonin (400 ng) plus PTH (1 ug/100 g/6 hr), PTH alone (1 ug/100 g/6 hr) or saline. Treatment with oligonucleotides was followed with infusion of PTH by subcutaneously implanted mini-pumps at a dose of 1 ug/100 g/6 hr. After 24 hours of PTH infusion (total PTH delivery of 4 ug/100 g), the mice were sacrificed and the serum calcium concentration was measured with the Sigma Diagnostics Calcium Kit (Sigma-Aldrich). The data, summarized in Table 10 are averages from eight mice. Percent mRNA inhibition is normalized to PTH alone treatment.

[4] = Serum calcium concentration after PTH infusion in mice: specificity and dose response of RANK antisense oligonucleotide (Table 15); format: in vivo, mouse; details: control mice, no oligonucleotide; PTH 1 ug/100 g/6 hr 24 h, calcitonin 400 ng
Procedure: In accordance with the present invention, the specificity of RANK inhibition by a RANK antisense oligonucleotide was compared to that of an 8-base pair mismatch oligonucleotide.
ISIS 181080 ([…], SEQ ID NO: 357) is an antisense oligonucleotide targeted to mouse RANK. ISIS 208565 ([…], SEQ ID NO: 358) is an 8-base pair mismatch oligonucleotide. […] All cytidine residues are 5-methylcytidines.
Female Swiss-Webster mice (5-8 wks old) fed a low-calcium diet were treated for two weeks with either ISIS 181080 or ISIS 208565. The dose of oligonucleotide was either 40 mg/kg, 30 mg/kg, 20 mg/kg, or 10 mg/kg. After the 2-week treatment with oligonucleotides, the mice were infused with PTH by subcutaneously implanted mini-pumps at a dose of 4 ug/100 g over 24 hours. A group of control mice were dosed with either saline, PTH alone (1 ug/100 g/6 hr) or calcitonin (400 ng) plus PTH (1 ug/100 g/6 hr). After 24 hours of PTH infusion (total PTH delivery of 4 ug/100 g), the mice were sacrificed and measurements were made of serum calcium with the Sigma Diagnostics Calcium Kit (Sigma-Aldrich) and RANK mRNA expression in proximal tibia (as described in other examples herein). The results shown in Table 15 are the average from four mice per group. Percent inhibition of RANK mRNA is normalized to PTH treatment alone. […] The data also illustrate that these effects are occurring due to an antisense mechanism.

## TCCTCGAGAGGTCTCCTTGC (antisense eT*e[5mC]*e[5mC]*eT*e[5mC]*dG*dA*dG*dA*dG*dG*dT*d[5mC]*dT*d[5mC]*e[5mC]*eT*eT*eG*e[5mC]) [ISIS 181071, 2′-MOE gapmer antisense oligonucleotide targeted to mouse RANK]
[1]; 30 mg/kg daily sc for 2 days
  RANK mRNA % inhibition (normalized to PTH) Bone Marrow: 0%
[1]; 30 mg/kg daily sc for 3 days
  RANK mRNA % inhibition (normalized to PTH) Bone Marrow: 35%
[1]; 30 mg/kg daily sc for 5 days
  RANK mRNA % inhibition (normalized to PTH) Bone Marrow: 32%
[1]; 30 mg/kg daily sc for 7 days
  RANK mRNA % inhibition (normalized to PTH) Bone Marrow: 44%
[1]; 30 mg/kg daily sc for 10 days
  RANK mRNA % inhibition (normalized to PTH) Bone Marrow: 18%
[1]; 30 mg/kg daily sc for 14 days
  RANK mRNA % inhibition (normalized to PTH) Bone Marrow: 36%
[1]; 30 mg/kg daily sc for 21 days
  RANK mRNA % inhibition (normalized to PTH) Bone Marrow: 8%

B1: parathyroid hormone (peptide, UniProt P01270 32-115, looked up)
Parathyroid hormone: SVSEIQLMHNLGKHLNSMERVEWLRKKLQDVHNFVALGAPLAPRDAGSQRPRKKEDNVLVESHEKSLGEADKADVNVLTKAKSQ
notes: parathyroid hormone infused to induce bone resorption in the mouse model
[2]; 12 hours
  RANKL mRNA % control: 242 % control
[2]; 18 hours
  RANKL mRNA % control: 117 % control
[2]; 24 hours (4 ug/100 g)
  RANKL mRNA % control: 205 % control
[3]; control groups under ISIS 180814 columns
  serum calcium: 22 mg/dL
[3]; control groups under ISIS 180819 columns
  serum calcium: 22 mg/dL
[4]
  serum calcium: 20 mg/dL
